The results in this text go back to PMC11940343, “In Vitro and In Vivo Evaluation of the De Novo Designed Antimicrobial Peptide P6.2 Against a KPC-Producing P. aeruginosa Clinical Isolate” (Biomolecules, 2025).

No end group written: not given here.

One data set relates to P. aeruginosa M13513. The data set is described as follows: Synergy by time-kill kinetic assay. It is filed as cell-based, Pseudomonas aeruginosa. To be noted: P6.2 and meropenem both at 0.5× MIC, synergy = ≥2-log10 decrease in CFU/mL vs most active constituent after 24 h. On the procedure: The possible synergistic interaction between P6.2 and meropenem was assessed through time–kill kinetic assays. These experiments were conducted in 50 mL tubes with a final volume of 10 mL. A log-phase culture of P. aeruginosa M13513 was obtained and subsequently diluted in CAMHB to achieve a final bacterial concentration of 5 × 10^6 CFU/mL. Both P6.2 and meropenem were tested individually and in combination at 0.5× MIC (minimum inhibitory concentration). Untreated bacterial cultures served as controls.
The samples were incubated at 37 °C with constant shaking for 24 h. Aliquots were collected at 0, 1, 2, 3, 4, 8, and 20 h, serially diluted in saline, and plated in triplicate on LB agar using three drops of 50 µL per dilution. The plates were incubated at 37 °C for 24 h to determine colony-forming unit (CFU) counts.
The results were plotted as Log CFU/mL versus time (h). […] A bactericidal effect was determined when the initial inoculum was reduced by three or more logarithmic units.

Data set [1] deals with Pseudomonas aeruginosa M13513. The data set is described as follows: MIC by broth microdilution (CLSI). It is filed as cell-based. To be noted: CAMHB, two consecutive values shown where replicates varied by one dilution. The text has this: Pseudomonas aeruginosa M13513 is a clinical isolate carrying the carbapenemase KPC-2 (blaKPC-2 gene). This strain was generously supplied by the Servicio Antimicrobianos, Instituto Nacional de Enfermedades Infecciosas (INEI)-ANLIS “Dr. Carlos G. Malbrán” in Buenos Aires, Argentina.
For antimicrobial testing, bacterial cultures were maintained in Cation-Adjusted Mueller–Hinton Broth (CAMHB), following Clinical and Laboratory Standards Institute (CLSI) guidelines.
The minimal inhibitory concentration was assessed using a standard microdilution assay, following CLSI guidelines. Mueller–Hinton Broth (Laboratorios Britania S.A., Buenos Aires, Argentina) supplemented with Ca^2+ (20–25 mg/L) and Mg^2+ (10–12.5 mg/L) was used for the assay. The bacterial strains tested included Pseudomonas aeruginosa PAO1, Pseudomonas aeruginosa M13513, and Staphylococcus aureus ATCC® 25923.
A general note: Broth dilution looks for growth in wells or tubes with falling amounts of substance.

The subject of data set [2] is RAW 264.7 (murine macrophage-like ATCC TIB-71). The format is cell-based. The procedure: The toxic effect was evaluated indirectly using the colorimetric MTT assay (3-[4,5-dimethylthiazol-2-yl]-2,5-diphenyl tetrazolium bromide, Thermo Fisher Scientific Inc, Massachusetts, USA) on A549 (human lung adenocarcinoma, ATCC CCL-185) and RAW 264.7 (murine macrophage-like ATCC TIB-71) cell lines. Cell lines were kindly provided by Instituto de Virología e Innovaciones Tecnológicas (IVIT), (INTA-CONICET, Buenos Aires, Argentina).
For the assay, A549 cells were seeded in 96-well plates at a density of 1 × 10^4 cells per well, while RAW 264.7 cells were seeded at a density of 5 × 10^4 cells per well. The plates were incubated for 24 h at 37 °C with 5% CO^2 to allow cell adhesion. The peptide P6.2 was dissolved in distilled water at a stock concentration of 10.24 mg/mL, and serial dilutions were made in RPMI-1640 medium supplemented with 10% fetal bovine serum (FBS, Internegocios S.A., Mercedes, Argentina). The concentrations used to assess P6.2 toxicity were the same as those previously employed in bacterial studies to determine the minimum inhibitory concentration (MIC) in antimicrobial activity assays. For the A549 cell line, P6.2 concentrations ranged from 4 µg/mL to 1024 µg/mL using serial dilutions in culture medium. For the RAW 264.7 cells, P6.2 concentrations ranged from 256 µg/mL to 8 µg/mL, with the concentration range adjusted based on preliminary results obtained from the A549 cell line.
Peptides were added and plates were incubated for 24 h at 37 °C in a 5% CO2 atmosphere. After incubation, the culture medium was removed, and the cells were washed with PBS (Phosphate Buffered Saline pH 7.2) to remove any remnants of the treatments. Next, 100 µL of MTT solution (0.5 mg/mL in PBS) was added to each well, and the plates were incubated for 0.5 to 3 h at 37 °C. During this period, viable cells reduced MTT, forming visible formazan crystals under a light field microscope (Zeiss Primovent, Oberkochen, Germany), indicating the cell metabolism of the compound.
At the end of the incubation, the supernatant was removed, and 200 µL of DMSO was added to each well to dissolve the formazan crystals. The plates were shaken to homogenize the contents, and absorbance was measured at 570 nm using a microplate reader (RT2100, Rayto Life and Analytical Sciences Co., Ltd, Shenzhen, China). Triplicates were run for each treatment. Cell viability was calculated by setting the absorbance value obtained for untreated control cells as 100% viability.

Consider GLLRKWGKKWKEFLRRVWK-NH2 [Peptide P6.2], for which, in the data set on P. aeruginosa M13513, the interaction with meropenem result was “synergism”. For the same substance, the MIC in data set [1] is reported as 32/64. The LogCC50 in data set [2] is reported as 2.188. In addition, the “CC50 (cytotoxic concentration 50%)” value in data set [2] (24 h) stood at 154.1 µg/mL.
